Data reported in patent US12543738B2 (Bayer Aktiengesellschaft, priority 2020, dated 2026).

What was measured:
Septoria tritici = Septoria tritici in vitro cell test; format: cell-based; conditions: Zymoseptoria tritici, 168 h; 20 ppm of active ingredient; liquid culture, 7 days incubation; read-out: efficacy (inhibition of fungal growth)
Method: • Solvent: DMSO • Culture medium: 1 g KH2PO4 (VWR), 1 g K2HPO4 (VWR), 0.5 g Urea (VWR), 3 g KNO3 (Prolabo), 10 g saccharose (VWR), 0.5 g MgSO4, 7H2O (Sigma), 0.07 g CaCl2, 2H2O (Prolabo), 0.2 mg MnSO4, H2O (Sigma), 0.6 mg CuSO4, 5H2O (Sigma), 7.9 mg ZnSO4, 7H2O (Sigma), 0.1 mg H3BO3 (Merck), 0.14 mg NaMoO4, 2H2O (Sigma), 2 mg thiamine (Sigma), 0.1 mg biotine (VWR), 4 mg FeSO4, 7H2O (Sigma), QSP 1 liter • Inoculum: spore suspension Fungicides were solubilized in DMSO and the solution used to prepare the required range of concentrations. […] A spore suspension of S. tritici was prepared and diluted to the desired spore density. Fungicides were evaluated for their ability to inhibit spore germination and mycelium growth in liquid culture assay. The compounds were added in the desired concentration to the culture medium with spores. […] Inhibition of fungal growth was determined by comparing the absorbance values in wells containing the fungicides with the absorbance in control wells without fungicides.

Sphaerotheca fuliginea = assay: In vivo preventive test on Sphaerotheca fuliginea (powdery mildew on cucurbits); conditions: Podosphaera fuliginea, 192 h; 500 ppm of active ingredient; preventive spray on gherkin; evaluated 8 days after inoculation; read-out: efficacy
Method in brief: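 Preventive spray on young gherkin plants with compound in DMSO/acetone/Tween 80 diluted in water; controls received solvent only. Leaves inoculated 24 h later by spraying an aqueous S. fuliginea spore suspension.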

Alternaria brassicae = assay: In vivo preventive test on Alternaria brassicae (leaf spot on radish or cabbage); conditions: 144 h, 500 ppm of active ingredient, preventive spray on radish or cabbage, evaluated 6 days after inoculation, read-out: efficacy
Method in brief: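 Young radish or cabbage plants sprayed with compound dissolved in DMSO/acetone/Tween 80 and diluted in water; controls received solvent only. Leaves inoculated 24 h later by spraying an aqueous Alternaria brassicae spore suspension.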

Alternaria alternata = Alternaria alternata in vitro cell test; format: cell-based; conditions: 120 h, 20 ppm of active ingredient, liquid culture, 5 days incubation, read-out: efficacy (inhibition of fungal growth)
Method in brief: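 A. alternata spores in glucose–peptone–yeast extract liquid medium were exposed to DMSO-solubilized compounds. Mycelial growth was measured spectrophotometrically after 5 days. Inhibition was calculated from absorbance relative to compound-free controls.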

Pyricularia Oryzae = assay: microbe, parasite or virus in culture; format: cell-based; conditions: 120 h, read-out: efficacy (inhibition of fungal growth)
[1] = system: Colletotrichum lindemuthianum; assay: In vivo preventive test on Colletotrichum lindemuthianum (leaf spot on bean); conditions: 168 h, 500 ppm of active ingredient, preventive spray on bean, evaluated 7 days after inoculation, read-out: efficacy
Method in brief: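 Young bean plants were sprayed with compound dissolved in DMSO/acetone/Tween 80 and diluted in water; controls received the solvent mixture alone. Leaves were spray-inoculated with C. lindemuthianum spore suspension 24 h after treatment (preventive).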

[2] = system: Colletotrichum lindemuthianum; assay: Colletotrichum lindemuthianum in vitro cell test; format: cell-based; conditions: 144 h, 20 ppm of active ingredient, liquid culture, 6 days incubation, read-out: efficacy (inhibition of fungal growth)
Method: • Solvent: DMSO • Culture medium: 14.6 g anhydrous D-glucose (VWR), 7.1 g Mycological Peptone (Oxoid), 1.4 g granulated Yeast Extract (Merck), QSP 1 liter • Inoculum: spores suspension Fungicides were solubilized in DMSO and the solution used to prepare the required range of concentrations. […] A spore suspension of C. lindemuthianum was prepared and diluted to the desired spore density. Fungicides were evaluated for their ability to inhibit spores germination and mycelium growth in liquid culture assay. The compounds were added in the desired concentration to the culture medium with spores. After 6 days incubation, fungi-toxicity of compounds was determined by spectrometric measurement of mycelium growth. Inhibition of fungal growth was determined by comparing the absorbance values in wells containing the fungicides with the absorbance in control wells without fungicides.

Pyrenophora teres = assay: In vivo preventive test on Pyrenophora teres (net blotch on barley); conditions: 240 h, 500 ppm of active ingredient, preventive spray on barley, evaluated 10 days after inoculation, read-out: efficacy
Method in brief: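 Young barley plants sprayed preventively with compound dissolved in DMSO/acetone/Tween 80 and diluted in water; controls received solvent mixture only. Leaves inoculated 24 h later by spraying an aqueous P. teres spore suspension.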

Fusarium culmorum = Fusarium culmorum in vitro cell test; format: cell-based; conditions: 96 h, 20 ppm of active ingredient, liquid culture, 4 days incubation, read-out: efficacy (inhibition of fungal growth)
Method: • Solvent: DMSO • Culture medium: 14.6 g anhydrous D-glucose (VWR), 7.1 g Mycological Peptone (Oxoid), 1.4 g granulated Yeast Extract (Merck), QSP 1 liter • Inoculum: spore suspension • Fungicides were solubilized in DMSO and the solution used to prepare the required range of concentrations. The final concentration of DMSO used in the assay was ≤1%.
A spore suspension of F. culmorum was prepared and diluted to the desired spore density.
Fungicides were evaluated for their ability to inhibit spore germination and mycelium growth in liquid culture assay. The compounds were added in the desired concentration to the culture medium with spores. After 4 days incubation, fungi-toxicity of compounds was determined by spectrometric measurement of mycelium growth. Inhibition of fungal growth was determined by comparing the absorbance values in wells containing the fungicides with the absorbance in control wells without fungicides.

Botrytis cinerea = assay: In vivo preventive test on Botrytis cinerea (grey mould); conditions: 500 ppm of active ingredient, preventive spray on gherkin or cabbage, evaluated 4 to 5 days after inoculation, read-out: efficacy
Method in brief: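 Young plants of gherkin or cabbage were sprayed with water-diluted compound formulated in DMSO/acetone/Tween 80, with solvent-only controls. Inoculation followed 24 h later by spraying an aqueous spore suspension of Botrytis cinerea onto leaves.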

[3] = Measurement of LogP values by HPLC on reversed phase columns (EEC directive 79/831 Annex V.A8); format: physicochemical; conditions: method [a]: LC-UV, acidic range, 0.1% formic acid in water and acetonitrile; compounds of formula (I-1), Table 1
Method: Calibration was done with straight-chain alkan2-ones (with 3 to 16 carbon atoms) with known LogP values (measurement of LogP values using retention times with linear interpolation between successive alkanones). Lambda-max-values were determined using UV-spectra from 200 nm to 400 nm and the peak values of the chromatographic signals

## CCc1cccc(Oc2nnc(C)cc2C2=NOCC(Cc3ccc(C)cc3C)N2)c1F (racemic) [Compound I-014, (5RS)-5-(2,4-dimethylbenzyl)-3-[3-(3-ethyl-2-fluorophenoxy)-6-methylpyridazin-4-yl]-5,6-dihydro-4H-1,2,4-oxadiazine]
Septoria tritici
  inhibition at 20 ppm: 90 to 100%
Sphaerotheca fuliginea
  pest or weed control at 500 ppm: 90 to 100%
Alternaria brassicae
  pest or weed control at 500 ppm: 90 to 100%
Alternaria alternata
  inhibition at 20 ppm: 90 to 100%
Pyricularia Oryzae
  inhibition at 20 ppm: 90 to 100%
[1]
  pest or weed control at 500 ppm: 90 to 100%
[2]
  inhibition at 20 ppm: 90 to 100%
Pyrenophora teres
  pest or weed control at 500 ppm: 90 to 100%
Fusarium culmorum
  inhibition at 20 ppm: 90 to 100%
Botrytis cinerea
  pest or weed control at 500 ppm: 90 to 100%
[3]
  chromatographic logP: 4.12

## Cc1ccc(CC2CON=C(c3cc(C)nnc3Oc3cccc(Cl)c3F)N2)c(Br)c1 (racemic) [Compound I-006, (5RS)-5-(2-bromo-4-methylbenzyl)-3-[3-(3-chloro-2-fluorophenoxy)-6-methylpyridazin-4-yl]-5,6-dihydro-4H-1,2,4-oxadiazine]
Septoria tritici
  inhibition at 20 ppm: 90 to 100%
Sphaerotheca fuliginea
  pest or weed control at 500 ppm: 90 to 100%
Alternaria brassicae
  pest or weed control at 500 ppm: 90 to 100%
Alternaria alternata
  inhibition at 20 ppm: 90 to 100%
Pyricularia Oryzae
  inhibition at 20 ppm: 90 to 100%
[1]
  pest or weed control at 500 ppm: 90 to 100%
[2]
  inhibition at 20 ppm: 90 to 100%
Pyrenophora teres
  pest or weed control at 500 ppm: 90 to 100%
Fusarium culmorum
  inhibition at 20 ppm: 90 to 100%
Botrytis cinerea
  pest or weed control at 500 ppm: 90 to 100%
[3]
  chromatographic logP: 4.01

## Cc1ccc(CC2CON=C(c3cc(C)nnc3Oc3cccc(Cl)c3)N2)c(Cl)c1 (racemic) [Compound I-004, (5RS)-5-(2-chloro-4-methylbenzyl)-3-[3-(3-chlorophenoxy)-6-methylpyridazin-4-yl]-5,6-dihydro-4H-1,2,4-oxadiazine]
Septoria tritici
  inhibition at 20 ppm: 90 to 100%
Sphaerotheca fuliginea
  pest or weed control at 500 ppm: 90 to 100%
Alternaria brassicae
  pest or weed control at 500 ppm: 90 to 100%
Alternaria alternata
  inhibition at 20 ppm: 90 to 100%
Pyricularia Oryzae
  inhibition at 20 ppm: 90 to 100%
[1]
  pest or weed control at 500 ppm: 90 to 100%
[2]
  inhibition at 20 ppm: 90 to 100%
Pyrenophora teres
  pest or weed control at 500 ppm: 90 to 100%
Fusarium culmorum
  inhibition at 20 ppm: 90 to 100%
Botrytis cinerea
  pest or weed control at 500 ppm: 90 to 100%
[3]
  chromatographic logP: 3.81

## Cc1cc(C2=NOCC(Cc3ccc(Cl)cc3Cl)N2)c(Oc2cccc(C)c2F)nn1 (racemic) [Compound I-007, (5RS)-5-(2,4-dichlorobenzyl)-3-[3-(2-fluoro-3-methylphenoxy)-6-methylpyridazin-4-yl]-5,6-dihydro-4H-1,2,4-oxadiazine]
Septoria tritici
  inhibition at 20 ppm: 90 to 100%
Sphaerotheca fuliginea
  pest or weed control at 500 ppm: 90 to 100%
Alternaria brassicae
  pest or weed control at 500 ppm: 90 to 100%
Alternaria alternata
  inhibition at 20 ppm: 90 to 100%
Pyricularia Oryzae
  inhibition at 20 ppm: 90 to 100%
[1]
  pest or weed control at 500 ppm: 90 to 100%
[2]
  inhibition at 20 ppm: 90 to 100%
Pyrenophora teres
  pest or weed control at 500 ppm: 90 to 100%
Fusarium culmorum
  inhibition at 20 ppm: 90 to 100%
Botrytis cinerea
  pest or weed control at 500 ppm: 90 to 100%
[3]
  chromatographic logP: 3.91

## Cc1ccc(CC2CON=C(c3cc(C)nnc3Oc3cccc(C)c3F)N2)c(Cl)c1 (racemic) [Compound I-003, (5RS)-5-(2-chloro-4-methylbenzyl)-3-[3-(2-fluoro-3-methylphenoxy)-6-methylpyridazin-4-yl]-5,6-dihydro-4H-1,2,4-oxadiazine]
Septoria tritici
  inhibition at 20 ppm: 90 to 100%
Sphaerotheca fuliginea
  pest or weed control at 500 ppm: 90 to 100%
Alternaria brassicae
  pest or weed control at 500 ppm: 90 to 100%
Alternaria alternata
  inhibition at 20 ppm: 90 to 100%
Pyricularia Oryzae
  inhibition at 20 ppm: 90 to 100%
[1]
  pest or weed control at 500 ppm: 90 to 100%
[2]
  inhibition at 20 ppm: 90 to 100%
Pyrenophora teres
  pest or weed control at 500 ppm: 90 to 100%
Fusarium culmorum
  inhibition at 20 ppm: 90 to 100%
Botrytis cinerea
  pest or weed control at 500 ppm: 90 to 100%
[3]
  chromatographic logP: 3.78

## Cc1cc(C)cc(CC2CON=C(c3cc(C)nnc3Oc3cccc(Cl)c3F)N2)c1 (racemic) [Compound I-010, (5RS)-3-[3-(3-chloro-2-fluorophenoxy)-6-methylpyridazin-4-yl]-5-(3,5-dimethylbenzyl)-5,6-dihydro-4H-1,2,4-oxadiazine]
Septoria tritici
  inhibition at 20 ppm: 90 to 100%
Sphaerotheca fuliginea
  pest or weed control at 500 ppm: 90 to 100%
Alternaria brassicae
  pest or weed control at 500 ppm: 90 to 100%
Alternaria alternata
  inhibition at 20 ppm: 90 to 100%
Pyricularia Oryzae
  inhibition at 20 ppm: 90 to 100%
[1]
  pest or weed control at 500 ppm: 90 to 100%
[2]
  inhibition at 20 ppm: 90 to 100%
Pyrenophora teres
  pest or weed control at 500 ppm: 90 to 100%
Fusarium culmorum
  inhibition at 20 ppm: 90 to 100%
Botrytis cinerea
  pest or weed control at 500 ppm: 90 to 100%
[3]
  chromatographic logP: 4.01
